Laboratory results from US11547130B2, “Nanocomposite bacteriostatic material and a preparation method and an application thereof” (Tianjin University of Science and Technology, priority 2019, dated 2023).

Test system: Bacillus subtilis
Experiment: Shake-flask antibacterial test, viable count by dilution spread plate method
Assay type: cell-based
Experimental: Bacillus subtilis was selected as a strain for the antibacterial test. The Bacillus subtilis was cultured for overnight in a shake flask first, and a bacteria solution having a concentration of 10^8 CFU/mL was selected as a seed solution for later use. Multiple 100 mL triangular flasks provided with 30 mL of LB liquid medium were taken, and sterilized for 20 min at 121° C. The triangular flasks were divided into four groups, three triangular flasks in each group for parallel test.
(§1) The Bacillus subtilis solution having the concentration of 10^8 CFU/mL was inoculated to the above four groups as per an inoculum size of 2% (v/v), and respectively cultured for 4 h, 8 h, 12 h, 24 h and 28 h on a shaker, where a culture condition was 37° C. and 180 r/min. Then, a sample at every timing was taken, and a viable count in each shake flask was measured via a dilution spread plate method to embody the antibacterial activity.
as §1, with “r/min, for sampling.” for “r/min.”, “sample” for “sample at every timing”, “flask at every moment” for “flask”

## nisin
Experimental example 1 (Embodiment 1 materials, nisin 1 g/L), 1 mL agent in 30 mL LB, 8-12 h in culture
  concentration of bacteria in the shake flask: ≥ 10^7 CFU/mL
Experimental example 1 (Embodiment 1 materials, nisin 1 g/L), 1 mL agent in 30 mL LB, 4 h in culture, 37° C.
  concentration of viable bacteria in the shake flask: ≥ 10^4 CFU/mL
Experimental example 1 (nisin 1 g/L), nisin at 8 h, empty carrier at 24-28 h, nano-composite at 28 h
  antibacterial activity in words: lost bacteriostatic action at 8 h
Experimental example 2 (Embodiment 2 materials, nisin 10 g/L), at 16 h
  antibacterial activity in words: greatly reduced
